Experimental findings from ChEMBL document CHEMBL1142886, “Substrate specificity analysis and inhibitor design of homoisocitrate dehydrogenase” (Bioorg Med Chem, 2007) are described below.

Calls of active or inactive are those of the source. The calls are words filed in the database; no cut-off is given here.

Assay [1] relates to Deinococcus radiodurans. The experiment in a line: Activity of Deinococcus radiodurans homoisocitrate dehydrogenase.
Assay [2] concerns Deinococcus radiodurans. The assay can be described thus: Ratio of kcat/km of Deinococcus radiodurans homoisocitrate dehydrogenase.
In assay [3] the test system is Deinococcus radiodurans. The experiment in a line: Activity of Deinococcus radiodurans homoisocitrate dehydrogenase above 10 mM.
Assay [4] deals with Homoisocitrate dehydrogenase, mitochondrial (Saccharomyces cerevisiae S288c) (UniProt P40495). The assay can be described thus: Activity of recombinant Saccharomyces cerevisiae homoisocitrate dehydrogenase expressed in Escherichia coli Rosetta cells above 10 mM.
Sequence of Homoisocitrate dehydrogenase, mitochondrial (Saccharomyces cerevisiae S288c) (P40495 whole entry): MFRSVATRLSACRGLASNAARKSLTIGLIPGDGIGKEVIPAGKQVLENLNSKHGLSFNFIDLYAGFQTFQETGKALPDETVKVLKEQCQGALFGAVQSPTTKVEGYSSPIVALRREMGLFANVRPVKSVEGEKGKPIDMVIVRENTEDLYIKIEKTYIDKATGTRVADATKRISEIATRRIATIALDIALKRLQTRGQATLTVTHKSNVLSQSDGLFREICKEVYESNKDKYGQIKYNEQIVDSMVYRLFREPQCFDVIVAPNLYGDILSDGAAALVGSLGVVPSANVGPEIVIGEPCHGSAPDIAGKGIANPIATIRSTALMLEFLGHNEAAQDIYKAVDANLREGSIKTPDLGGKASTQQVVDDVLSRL

For the compound `C[C@H](C(=O)O)[C@@H](O)C(=O)O`, in the assay on Deinococcus radiodurans [1], the Km was 3600 µM and the kcat was 19 s⁻¹. Besides, the kcat/Km in the assay with Deinococcus radiodurans [2] came out at 5300 M⁻¹ s⁻¹.

`O=C(O)[C@@H](O)[C@@H](O)C(=O)O`: the result (with Deinococcus radiodurans [3]; in assay [4]) was inactive.

Take `O=C(O)[C@H](O)[C@@H](C(=O)O)c1ccccc1`: the outcome (in the assay with Deinococcus radiodurans [3]; in assay [4]) was inactive.

For `NCCC[C@H](C(=O)O)[C@@H](O)C(=O)O`, the outcome (in the assay on Deinococcus radiodurans [3]; in assay [4]) was inactive.

For the compound `C=C[C@H](C(=O)O)[C@@H](O)C(=O)O`, in the assay with Deinococcus radiodurans [1], the Km is 83 µM and the kcat was 0.77 s⁻¹. Further, the kcat/Km with Deinococcus radiodurans [2] came out at 9300 M⁻¹ s⁻¹.

Consider `C=CC[C@H](C(=O)O)[C@@H](O)C(=O)O`, for which, in the assay on Deinococcus radiodurans [1], the Km came out at 2800 µM and the kcat was 37 s⁻¹. Moreover, the kcat/Km with Deinococcus radiodurans [2] stood at 13000 M⁻¹ s⁻¹.

As for `C=CCCC[C@H](C(=O)O)[C@@H](O)C(=O)O`, in the assay with Deinococcus radiodurans [1], the Km was 2700 µM and the kcat stood at 3 s⁻¹. Moreover, in the assay with Deinococcus radiodurans [2], the kcat/Km is 1100 M⁻¹ s⁻¹.

As to `CCC[C@H](C(=O)O)[C@@H](O)C(=O)O`, in the assay on Deinococcus radiodurans [1], the Km turned out to be 780 µM and the kcat came out at 53 s⁻¹. The kcat/Km in the assay on Deinococcus radiodurans [2] amounted to 68000 M⁻¹ s⁻¹.

As to `O=C(O)C[C@H](C(=O)O)[C@@H](O)C(=O)O`, the outcome in assay [4] was inactive.

In the case of `O=C(O)CCC[C@H](C(=O)O)[C@@H](O)C(=O)O`, in the assay with Deinococcus radiodurans [1], the Km amounted to 200 µM and the kcat was determined as 40 s⁻¹. Further, in the assay with Deinococcus radiodurans [2], the kcat/Km is 200000 M⁻¹ s⁻¹.

Turning to `O=C(O)[C@@H](CCCCO)[C@@H](O)C(=O)O`, in the assay on Deinococcus radiodurans [1], the Km is 470 µM and the kcat is 28 s⁻¹. Moreover, in the assay with Deinococcus radiodurans [2], the kcat/Km came out at 60000 M⁻¹ s⁻¹.

On to `O=C(O)CCCC[C@H](C(=O)O)[C@@H](O)C(=O)O`, for which, in the assay on Deinococcus radiodurans [1], the Km came out at 140 µM and the kcat stood at 40 s⁻¹. In addition, the kcat/Km with Deinococcus radiodurans [2] was 290000 M⁻¹ s⁻¹.

For `CCCCC[C@H](C(=O)O)[C@@H](O)C(=O)O`, in the assay on Deinococcus radiodurans [1], the Km is 3200 µM and the kcat was determined as 3.7 s⁻¹. The kcat/Km with Deinococcus radiodurans [2] is 1200 M⁻¹ s⁻¹.

For `CC(C)[C@H](C(=O)O)[C@@H](O)C(=O)O`, the result in assay [4] was inactive.

In the case of `O=C(O)C[C@@H](O)C(=O)O`, the result (in the assay with Deinococcus radiodurans [3]; in assay [4]) was inactive.

Regarding `CC[C@H](C(=O)O)[C@@H](O)C(=O)O`, in the assay on Deinococcus radiodurans [1], the Km amounted to 1000 µM and the kcat came to 43 s⁻¹. Further, in the assay on Deinococcus radiodurans [2], the kcat/Km is 430000 M⁻¹ s⁻¹.

Consider `O=C(O)[C@@H](CCO)[C@@H](O)C(=O)O`, for which, in the assay on Deinococcus radiodurans [1], the Km came to 590 µM and the kcat was 25 s⁻¹. Further, in the assay with Deinococcus radiodurans [2], the kcat/Km is 42000 M⁻¹ s⁻¹.

`O=C(O)[C@@H](CCCO)[C@@H](O)C(=O)O`: in the assay on Deinococcus radiodurans [1], the Km came out at 510 µM and the turnover number (kcat) was 29 s⁻¹. In addition, in the assay on Deinococcus radiodurans [2], the kcat/Km turned out to be 200000 M⁻¹ s⁻¹.
